Data as given in article PMC6499206, “Quantification of Volatile Metabolites Derived From Garlic (Allium sativum) in Human Urine” (Frontiers in Nutrition, 2019).

Assay: Quantification of garlic-derived metabolites in human urine after ingestion of 3 g raw garlic (SIDA, SAFE, HRGC-MS / HRGC-GC-MS)
Assay type: in vivo
Settings: 3 g raw garlic
Description: Human urine samples were obtained from 18 volunteers (age 22–38 years, mean 27 years; 11 females, 7 males); thereby, one volunteer conducted the whole experimental series twice. At the time of examination, volunteers reported no known illness that might have potentially influenced the metabolism or the excretion of urine. The test persons were instructed to avoid foods that were rich in sulfur-containing substances at the testing day as well as 2 days preceding the testing day, namely garlic, onion, wild garlic, chives, cabbage, and leek, and were only allowed to consume the garlic sample provided in the course of the experiments. Additionally, subjects were asked to keep records of the food (including food supplements) and beverages they consumed during these 3 testing days. Generally, the overall panelists' requirements were in accordance with our previous studies ([5], [16]).
On the sampling day, the outer garlic cloves of a whole garlic bulb were peeled and cut into ~3 mm cubes by using a garlic cutter (Genius GmbH, Limburg/Lahn, Germany). Subsequently these cubes were thoroughly mixed and aliquoted into 3 g portions. Three to four test persons conducted the experiment at the same day. Each test person was asked to ingest a garlic portion of 3 g. In total, eight consecutive urine samples were provided by each test person, comprising one whole urine set. The samples were collected in sterile brown glass bottles, with sampling times as follows: one sample was provided directly prior to garlic consumption. The series of the second to eighth sample was then obtained at about 0.5, 1, 2, 4, 6, 8, and 24 h after garlic consumption, respectively. Between the first urine sample (prior to garlic consumption) and the seventh urine sample (8 h after garlic consumption) test persons only spent urine at the specific time points mentioned before. Another sample was provided at the next morning (24 h after garlic consumption). Between the samples provided 8 and 24 h after garlic consumption no urine was collected. All samples were immediately placed into a −80°C freezer and were kept frozen until further analysis.
The samples of each set were termed according to their sampling time. The following list provides the time intervals that are related to the respective sample name: • - pre: before garlic consumption • - 0.5 h post: 0.4–0.8 h after garlic consumption • - 1 h post: 0.9–1.3 h after garlic consumption • - 2 h post: 1.8 h−2.2 h after garlic consumption • - 4 h post: 3.8–4.4 h after garlic consumption • - 6 h post: 5.8–6.4 h after garlic consumption • - 8 h post: 7.8–8.4 h after garlic consumption • - 24 h post: 23.8–25.6 h after garlic consumption
A creatinine kit (Labor+Technik Eberhard Lehmann GmbH, Berlin, Germany) was used to determine the creatinine content in each urine sample. The determination principle of this kit is based on the reaction of creatinine with picric acid under basic conditions (Jaffé reaction). The formed complex was detected photometrically at a wavelength of 492 nm.
For quantification purposes, the deuterated standards ^2H3-AMS, ^2H3-AMSO, and ^2H3-AMSO2 were added to the sample and stirred for 10 min. Subsequently, DCM was added in a ratio of 1:2 (DCM/human urine; v/v) and this solution was stirred for further 30 min at room temperature. To isolate the volatile fraction from the urine samples we then applied SAFE-distillation ([17]), thereby distilling the respective samples at 50°C. After completion of the distillation process, 10 mL of DCM were applied in each case to rinse the SAFE apparatus and to ensure complete transition of the volatile compounds. This process was repeated with another 10 mL of DCM. After thawing, the obtained aqueous distillate phase was extracted three times with 25 mL DCM. The organic phases were combined, dried over anhydrous Na2SO4 and concentrated to a total volume of 100 μL by means of Vigreux distillation and subsequent micro-distillation at 50°C. […]

SMILES: C=CCS(C)(=O)=O [AMSO2, allyl methyl sulfone]
- metabolite concentration in urine (U IV, 6 h post (6.08 h)): 96.7 µg/kg
- metabolite concentration in urine, creatinine-normalized (U IV, 6 h post (6.08 h)): 6.9 µg/mmol creatinine
- metabolite concentration in urine (U IV, 8 h post (8.05 h)): 73.4 µg/kg
- metabolite concentration in urine, creatinine-normalized (U IV, 8 h post (8.05 h)): 15.4 µg/mmol creatinine
- metabolite concentration in urine (U IV, 24 h post (24.03 h)): 6.8 µg/kg
- metabolite concentration in urine, creatinine-normalized (U IV, 24 h post (24.03 h)): 0.7 µg/mmol creatinine
- metabolite concentration in urine (U IV, pre (-0.05 h)): < LOD^3
- metabolite concentration in urine, creatinine-normalized (U IV, pre (-0.05 h)): < LOD^3
- metabolite concentration in urine (U IX, 0.5 h post (0.67 h)): 54.8 µg/kg
- metabolite concentration in urine, creatinine-normalized (U IX, 0.5 h post (0.67 h)): 52.1 µg/mmol creatinine
- metabolite concentration in urine (U IX, 1 h post (1.17 h)): 161.7 µg/kg
- metabolite concentration in urine, creatinine-normalized (U IX, 1 h post (1.17 h)): 167.7 µg/mmol creatinine
- metabolite concentration in urine (U IX, 2 h post (1.83 h)): 248.6 µg/kg
- metabolite concentration in urine, creatinine-normalized (U IX, 2 h post (1.83 h)): 236.2 µg/mmol creatinine
- metabolite concentration in urine (U IX, 4 h post (4.17 h)): 367.0 µg/kg
- metabolite concentration in urine, creatinine-normalized (U IX, 4 h post (4.17 h)): 70.5 µg/mmol creatinine
- metabolite concentration in urine (U IX, 6 h post (6.08 h)): 343.5 µg/kg
- metabolite concentration in urine, creatinine-normalized (U IX, 6 h post (6.08 h)): 107.8 µg/mmol creatinine
- metabolite concentration in urine (U IX, 8 h post (8.08 h)): 269.3 µg/kg
- metabolite concentration in urine, creatinine-normalized (U IX, 8 h post (8.08 h)): 19.2 µg/mmol creatinine
- metabolite concentration in urine (U IX, 24 h post (24.00 h)): 5.9 µg/kg
- metabolite concentration in urine, creatinine-normalized (U IX, 24 h post (24.00 h)): 0.7 µg/mmol creatinine
- metabolite concentration in urine (U IX, pre (-0.08 h)): < LOD^3
- metabolite concentration in urine, creatinine-normalized (U IX, pre (-0.08 h)): < LOD^3
- metabolite concentration in urine (U V, 0.5 h post (0.50 h)): 33.9 µg/kg
- metabolite concentration in urine, creatinine-normalized (U V, 0.5 h post (0.50 h)): 49.6 µg/mmol creatinine
- metabolite concentration in urine (U V, 1 h post (1.00 h)): 80.4 µg/kg
- metabolite concentration in urine, creatinine-normalized (U V, 1 h post (1.00 h)): 96.0 µg/mmol creatinine
- metabolite concentration in urine (U V, 2 h post (2.00 h)): 111.3 µg/kg
- metabolite concentration in urine, creatinine-normalized (U V, 2 h post (2.00 h)): 132.8 µg/mmol creatinine
- metabolite concentration in urine (U V, 4 h post (4.00 h)): 142.9 µg/kg
- metabolite concentration in urine, creatinine-normalized (U V, 4 h post (4.00 h)): 46.1 µg/mmol creatinine
- metabolite concentration in urine (U V, 6 h post (6.00 h)): 151.3 µg/kg
- metabolite concentration in urine, creatinine-normalized (U V, 6 h post (6.00 h)): 30.1 µg/mmol creatinine
- metabolite concentration in urine (U V, 8 h post (8.00 h)): 99.4 µg/kg
- metabolite concentration in urine, creatinine-normalized (U V, 8 h post (8.00 h)): 45.8 µg/mmol creatinine
- metabolite concentration in urine (U V, 24 h post (24.00 h)): 5.1 µg/kg
- metabolite concentration in urine, creatinine-normalized (U V, 24 h post (24.00 h)): 0.9 µg/mmol creatinine
- metabolite concentration in urine (U V, pre (-0.05 h)): < LOD^3
- metabolite concentration in urine, creatinine-normalized (U V, pre (-0.05 h)): < LOD^3
- metabolite concentration in urine (U VI, 0.5 h post (0.50 h)): 74.1 µg/kg
- metabolite concentration in urine, creatinine-normalized (U VI, 0.5 h post (0.50 h)): 33.9 µg/mmol creatinine
- metabolite concentration in urine (U VI, 1 h post (1.00 h)): 87.6 µg/kg
- metabolite concentration in urine, creatinine-normalized (U VI, 1 h post (1.00 h)): 73.1 µg/mmol creatinine
- metabolite concentration in urine (U VI, 2 h post (2.00 h)): 136.6 µg/kg
- metabolite concentration in urine, creatinine-normalized (U VI, 2 h post (2.00 h)): 123.2 µg/mmol creatinine
- metabolite concentration in urine (U VI, 4 h post (4.00 h)): 150.1 µg/kg
- metabolite concentration in urine, creatinine-normalized (U VI, 4 h post (4.00 h)): 43.2 µg/mmol creatinine
- metabolite concentration in urine (U VI, 6 h post (6.00 h)): 147.1 µg/kg
- metabolite concentration in urine, creatinine-normalized (U VI, 6 h post (6.00 h)): 27.1 µg/mmol creatinine
- metabolite concentration in urine (U VI, 8 h post (8.00 h)): 106.7 µg/kg
- metabolite concentration in urine, creatinine-normalized (U VI, 8 h post (8.00 h)): 21.2 µg/mmol creatinine
- metabolite concentration in urine (U VI, 24 h post (24.17 h)): 9.2 µg/kg
- metabolite concentration in urine, creatinine-normalized (U VI, 24 h post (24.17 h)): 0.6 µg/mmol creatinine
- metabolite concentration in urine (U VI, pre (-0.05 h)): < LOD^3
- metabolite concentration in urine, creatinine-normalized (U VI, pre (-0.05 h)): < LOD^3
- metabolite concentration in urine (U VII, 0.5 h post (0.50 h)): 44.1 µg/kg
- metabolite concentration in urine, creatinine-normalized (U VII, 0.5 h post (0.50 h)): 41.3 µg/mmol creatinine
